Data on 28 molecules can be found in US11160764B2, “Drug delivery composition containing silyl polymers” (Medherant Limited, priority 2015, dated 2021).

Series [1] can be described thus: Drug release analysis: permeation from patch across Pion membrane in Franz cell. Particulars: patch of the invention, PBS pH 7.4. On the procedure:
The membrane and patch are then placed in a Franz cell and then a PBS pH 7.4 buffer solution is added. Samples are taken at one hour interval for 8 hours. The amount of drug released is calculated using a validated HPLC/UV-Vis method depending on the drug in question.

The nature of series [2]: Solubility of drugs in the adhesive compositions / patches. As for the experimental part:
Three different grades of composition were employed in solubility experiments: A, B and C (see below). A is the grade which was used for initial studies and further was used as the standard grade for solubility tests.
A sample of composition is pre-heated to 80° C. in a closed cartridge or inert environment to avoid contact with moisture and approximately 10 ml of the composition is added into a beaker and weighed. A desired quantity of drug, preservative and excipients are then added to the mixture. The mixture is mixed until it has been homogenised and is then cast with the help of a heated Meyer bar onto a release liner. Once cast, the layers of composition are cured at 60° C. in a humid environment during 16 hours.
In all experiments benzyl alcohol (BenzOH) was employed as a co-solvent. BenzOH is widely used in both pharmaceutical and cosmetic formulations as a preservative, and therefore its addition is required to improve the shelf life of patches. […] Additionally, it acts as a solvent for drugs improving their dissolution in the polymer matrix compositions. The total amount of BenzOH in all formulations was in a range of 1-3% w/w.
All compounds in the liquid state were added by volume, which was estimated using their specific densities.

The conditions of series [3]: cited from earlier work.

Converted amounts (≈) assume the structure as drawn. Like-named read-outs stand apart in the source and are kept apart here.

`CC(C(=O)O)c1cccc(C(=O)c2ccccc2)c1` (stereo not shown) [Ketoprofen]: the Permeated drug amount is 0.90 μg cm^−2 in series [1] (sample 1 hours), 4.59 μg cm^−2 in series [1] (sample 2 hours), 17.37 μg cm^−2 in series [1] (sample 4 hours) and 35.67 μg cm^−2 in series [1] (sample 6 hours).
Consider `C[C@H]1[C@H](OC(=O)CCC(=O)O)O[C@@H]2O[C@@]3(C)CC[C@H]4[C@H](C)CC[C@@H]1[C@@]24OO3` [Artesunate], for which, in series [2], the Max. mass fraction is reported as 6%, the Sol. type result is “Molecular” and the “Soluble in A” value was “✓”. Also, in series [3], the Solubility in water was 56 µg/mL (≈ 146 µM).
Consider `C[C@@H]1CC[C@H]2[C@@H](C)C(=O)O[C@@H]3O[C@@]4(C)CC[C@@H]1[C@]32OO4` [Artemisinin], for which, in series [2], the Max. mass fraction was 9%, the Sol. type entry is “Molecular” and the “Soluble in A” value is “✓”. Besides, in series [3], the Solubility in water result is “insoluble”.
For the molecule `COc1cc(Cc2cnc(N)nc2N)cc(OC)c1OC` [Trimethoprim], in series [2], the Sol. type entry is given as “Dispersion”.
On to `CC(C)(C)NCC(O)c1ccc(O)c(CO)c1` (stereo not shown) [Salbutamol], for which, in series [2], the Max. mass fraction is 5%, the Sol. type result was “Molecular” and the “Soluble in A” value is recorded as “✓”.
For `CC(C(=O)O)c1ccc(-c2ccccc2)c(F)c1` (stereo not shown) [Flurbiprofen], the Sol. type entry in series [2] is given as “Molecular”. Also, in series [2] (grade A composition), the “Conc., wt %” value was over 5 wt % and the “Solubility of analgesic drugs in compositions: A” value (“Solubility … in compositions: A” below) was “✓”. In series [2] (grade A composition (Table 5)), the Max. mass fraction stood at 15% and the “Soluble in A” value is “✓”. Moreover, in series [2] (grade B composition), the “Conc., wt %” value was over 5 wt % and the “Solubility of analgesic drugs in compositions: B” value (“Solubility … in compositions: B” for short) was “✓”. In addition, the Solubility in water in series [3] was 25 µg/mL (≈ 102 µM).
The molecule `O=C(O)c1ccccc1O` [Salicylic acid] had a Permeated drug amount in series [1] (sample 1 hours) of 3.38 μg cm^−2. This molecule had a Permeated drug amount in series [1] (sample 2 hours) of 11.92 μg cm^−2. In addition, the Permeated drug amount in series [1] (sample 4 hours) is on record as 31.75 μg cm^−2. The molecule further returned a Permeated drug amount in series [1] (sample 6 hours) of 54.71 μg cm^−2. Also, in series [2], the “Conc., wt %” value was over 5 wt %; the Max. mass fraction turned out to be 30%; the Sol. type result is listed as “Molecular”; the “Solubility in the standard grade (A) composition, in words” value was “readily soluble”. For the same molecule, in series [2], the “Solubility … in compositions: A” value is reported as “✓”, the “Solubility … in compositions: B” value is “✓” and the “Soluble in A” value was “✓”.
In the case of `CC1(C)S[C@@H]2[C@H](NC(=O)Cc3ccccc3)C(=O)N2[C@H]1C(=O)O` [Penicillin G], the Sol. type result in series [2] (grade A composition (Table 5)) was “Dispersion”.
Take `CC(=O)[C@H]1CC[C@H]2[C@@H]3CCC4=CC(=O)CC[C@]4(C)[C@H]3CC[C@]12C` [Progesterone]: in series [2], the Max. mass fraction is reported as 15%, the Sol. type entry was “Molecular” and the “Soluble in A” value is “✓”. Further, in series [3], the Solubility in water was 9 µg/mL (≈ 28.6 µM).
In the case of `O=C(Oc1ccccc1C(=O)O)c1ccccc1O` [Salsalate], in series [2], the “Conc., wt %” value is over 5 wt %; the Max. mass fraction was found to be 10%; the Sol. type entry is reported as “Molecular”; the “Solubility … in compositions: A” value is reported as “✓”. For the same molecule, in series [2], the “Solubility … in compositions: B” value is on record as “✓” and the “Soluble in A” value is reported as “✓”. Further, in series [3], the Solubility in water was 246 µg/mL (≈ 953 µM).
On to `CN(Cc1cnc2nc(N)nc(N)c2n1)c1ccc(C(=O)N[C@@H](CCC(=O)O)C(=O)O)cc1` [Methotrexate], for which the Sol. type result in series [2] was “Molecular”. Also, in series [2] (grade A composition (Table 5)), the Max. mass fraction came to 7% and the “Soluble in A” value is “✓”. For the same molecule, in series [3], the Solubility in water entry is “insoluble”.
Turning to `C[C@]12C=CC(=O)C=C1CC[C@@H]1[C@@H]2[C@@H](O)C[C@@]2(C)[C@H]1CC[C@]2(O)C(=O)CO` [Prednisolone], the Sol. type result in series [2] (grade A composition (Table 5)) was “Dispersion”.
`CC(=O)Oc1ccccc1C(=O)O` [Aspirin]: the Sol. type result in series [2] is on record as “Dispersion”.
`CC(C)[C@@H]1CC[C@@H](C)C[C@H]1O` [Levomenthol]: in series [2], the “Conc., wt %” value is recorded as over 5 wt % and the Max. mass fraction came to 30%.
Consider `C[C@]12CC[C@H]3[C@@H](CCC4=CC(=O)CC[C@@]43C)[C@@H]1CC[C@@H]2O` [Testosterone], for which, in series [2] (grade A composition (Table 5)), the Max. mass fraction is 5%, the Sol. type entry is “Molecular” and the “Soluble in A” value is recorded as “✓”.
On to `Cc1ccc2c(Cl)cc(Cl)c(O)c2n1` [Chlorquinaldol], for which, in series [2] (grade A composition (Table 5)), the Max. mass fraction worked out at 15%, the Sol. type entry is “Molecular” and the “Soluble in A” value was “✓”. In addition, the “Solubility in compositions and patches of the invention, in words” value in series [2] (grades of the compositions of the invention) was “good dissolution”. For the same molecule, in series [2] (patches of the invention), the “Concentration / mass fraction in patches can be increased up to” value is recorded as “up to 15 % w/w”. Besides, the Solubility in water entry in series [3] was “insoluble”.
Regarding `O=C(O)Cc1ccccc1Nc1c(Cl)cccc1Cl` [Diclofenac], the Permeated drug amount in series [1] (sample 1 hours) amounted to 0.11 μg cm^−2; in series [1] (sample 2 hours) it was 0.16 μg cm^−2; in series [1] (sample 4 hours), 0.39 μg cm^−2; in series [1] (sample 6 hours) it was 0.47 μg cm^−2.
For Ivermectin, in series [2] (grade A composition (Table 5)), the Max. mass fraction is listed as 5%, the Sol. type result is given as “Molecular” and the “Soluble in A” value was “✓”.
Consider `CCCNC(C)C(=O)Nc1ccccc1C` (stereo not shown) [Prilocaine], for which, in series [2], the “Distribution of the drug in the patch” value is “uniformly distributed in the patch in a form of micro particles”; the Sol. type entry was “Dispersion”; the “Solubility in the standard grade (A) composition, in words” value is on record as “poor solubility”. In addition, the Solubility in water in series [3] is 540 µg/mL (≈ 2450 µM).
For the molecule `[H]/N=C(\N/C(=N/[H])NCCCCCCNC(=N)NC(=N)Nc1ccc(Cl)cc1)Nc1ccc(Cl)cc1` [Chlorhexidine], in series [2], the Sol. type entry is “Molecular”. For the same molecule, the “Solubility in compositions and patches of the invention” value in series [2] (Medherant patches / compositions of the invention) is on record as about 3.5 % w/w. Further, in series [2] (grade A composition (Table 5)), the Max. mass fraction was 3.5% and the “Soluble in A” value was “✓”.
As for `COc1ccc2c(c1)c(CC(=O)O)c(C)n2C(=O)c1ccc(Cl)cc1` [Indomethacin], in series [2], the “Conc., wt %” value is recorded as over 5 wt %; the Max. mass fraction is 10%; the Sol. type result was “Molecular”; the “Solubility … in compositions: A” value is given as “✓”. Also, in series [2], the “Solubility … in compositions: B” value was “✓” and the “Soluble in A” value is recorded as “✓”. In series [3], the Solubility in water was 2 µg/mL (≈ 5.59 µM).
`C[C@@H]1[C@H](O)[C@@H](C)/C=C/C=C/CC/C=C/C=C/C=C/C=C/C(O[C@H]2O[C@H](C)[C@@H](O)[C@H](N)[C@@H]2O)CC2O[C@](O)(CC(O)C(O)CCC(O)CC(O)CC(O)CC(=O)O[C@H]1C)CC(O)C2C(=O)O` (stereo partly shown) [Nystatin]: in series [2] (grade A composition (Table 5)), the Sol. type result is listed as “Molecular” and the “Soluble in A” value was “✓”.
Regarding `CC(C)Cc1ccc(C(C)C(=O)O)cc1` (stereo not shown) [Ibuprofen], the Permeated drug amount was 15.46 μg cm^−2 in series [1] (sample 1 hours), 37.23 μg cm^−2 in series [1] (sample 2 hours), 73.85 μg cm^−2 in series [1] (sample 4 hours) and 99.60 μg cm^−2 in series [1] (sample 6 hours).
For `Cn1c(=O)c2c(ncn2C)n(C)c1=O` [Caffeine], the Permeated drug amount worked out at 0.19 μg cm^−2 in series [1] (sample 1 hours), 2.33 μg cm^−2 in series [1] (sample 2 hours), 3.26 μg cm^−2 in series [1] (sample 4 hours) and 21.89 μg cm^−2 in series [1] (sample 6 hours).
Consider `CCCN[C@H]1CCc2nc(N)sc2C1` [Pramipexole], for which the Sol. type result in series [2] is “Dispersion”. Further, in series [3], the Solubility in water was 3900 µg/mL (≈ 18500 µM).
For `O=C(C1CCCCC1)N1CC(=O)N2CCc3ccccc3C2C1` (stereo not shown) [Praziquantel], in series [2], the Max. mass fraction worked out at 10%, the Sol. type entry was “Molecular” and the “Soluble in A” value was “✓”.
In the case of `CN1CCCC1c1cccnc1` (stereo not shown) [Nicotine], the Permeated drug amount in series [1] (sample 1 hours) turned out to be 2.26 μg cm^−2. For the same molecule, the Permeated drug amount in series [1] (sample 2 hours) is listed as 5.05 μg cm^−2. In series [1] (sample 4 hours), this molecule registered a Permeated drug amount of 13.76 μg cm^−2. The molecule also returned a Permeated drug amount in series [1] (sample 6 hours) of 18.33 μg cm^−2. Also, in series [2], the “Concentration / mass fraction in patches can be increased up to” value is recorded as “up to 30 % w/w”; the Max. mass fraction worked out at 30%; the Sol. type entry is reported as “Molecular”; the “Solubility in compositions and patches of the invention, in words” value was “freely soluble”. Moreover, the “Soluble in A” value in series [2] was “✓”.
With `CN1C(C(=O)Nc2ccccn2)=C(O)c2ccccc2S1(=O)=O` [Piroxicam], the Sol. type entry in series [2] was “Molecular”. For the same molecule, in series [2] (grade A composition), the “Conc., wt %” value is given as about 2.5 wt % and the “Solubility … in compositions: A” value is “✓”. Moreover, in series [2] (grade A composition (Table 5)), the Max. mass fraction came out at 2.5% and the “Soluble in A” value is “✓”. Moreover, in series [2] (grade B composition), the “Conc., wt %” value is recorded as about 2.5 wt % and the “Solubility … in compositions: B” value is given as “✓”. The molecule further displayed a Limited solubility in series [2] (standard grade (A)) of about 2.5 % w/w.
